Measured values from patent publication US7592360B2, “3-fluoro-piperidines as NMDA/NR2B antagonists” (Merck & Co., Inc., priority 2003, dated 2009).
Counter-ions that a name gives are not always drawn.

In the case of `Cc1ccc(COC(=O)N2CC[C@@H](CNc3nncs3)[C@H](F)C2)cc1` [Example 7, (+)-trans-4-methylbenzyl 3-fluoro-4-[(1,3,4-thiadiazol-2-ylamino)methyl]piperidine-1-carboxylate], the melting point is reported as 93 to 95 °C.
In the case of `Cc1ccc(COC(=O)N2CC[C@@H](CNc3nncs3)[C@@H](F)C2)cc1` (stereo in doubt) (as salt: hydrochloride) [Example 6, (−)-cis-4-methylbenzyl 3-fluoro-4-[(1,3,4-thiadiazol-2-ylamino)methyl]piperidine-1-carboxylate], the melting point is reported as 115 to 117 °C.
In the case of `O=C([C@@H]1C[C@H]1c1ccccc1)N1CC[C@H](CNc2ncccn2)[C@H](F)C1` (as salt: hydrochloride) [Example 5, (3S,4R)-N-[(3-cis-fluoro-1-{[(1R,2R)-2-phenylcyclopropyl]carbonyl}piperidin-4-yl)methyl]pyrimidin-2-amine], the melting point is reported as 127 to 128 °C.
